Here are results for 6 molecules from patent US9458164B2, “Pyrrolopyridazines as potassium ion channel inhibitors” (BRISTOL-MYERS SQUIBB COMPANY, priority 2013, dated 2016).

This assay deals with T1, human KV 1.5 (IKur) (Homo sapiens, UniProt P22460).
T1 construct: expressed in transfected cells
In words: Block of IKur current in patch clamped L-929 cells expressing human Kv1.5. As to conditions: L929, patch clamped mammalian L-929 cells stably expressing human Kv1.5, read-out: Percentage inhibition of Kv1.5 in L-929 cells at 0.3 μM. Format: cell-based. The text has this: Assays to determine the degree of activity of a compound as an IKur inhibitor are well known in the art and are described in references such as J. Gen. Physiol., 101(4):513-543 (April 1993), and Br. J. Pharmacol., 115(2):267-274 (May 1995).
Synders, D. J. et al., “A rapidly activating and slowly inactivating potassium channel cloned from human heart: functional analysis after stable mammalian cell culture expression”, J. Gen. Physiol., 101:513-543 (1993). • 2. Zhou, Z. et al., “Block of HERG potassium channels by the antihistamine astemizole and its metabolites desmethylastemizole and norastemizole”, J. Cardiovasc. Electrophysiol., 10(6):836-843 (1999).
(The patch-clamp technique gives a direct electrical read-out from membranes.)

T1 sequence (P22460 whole entry): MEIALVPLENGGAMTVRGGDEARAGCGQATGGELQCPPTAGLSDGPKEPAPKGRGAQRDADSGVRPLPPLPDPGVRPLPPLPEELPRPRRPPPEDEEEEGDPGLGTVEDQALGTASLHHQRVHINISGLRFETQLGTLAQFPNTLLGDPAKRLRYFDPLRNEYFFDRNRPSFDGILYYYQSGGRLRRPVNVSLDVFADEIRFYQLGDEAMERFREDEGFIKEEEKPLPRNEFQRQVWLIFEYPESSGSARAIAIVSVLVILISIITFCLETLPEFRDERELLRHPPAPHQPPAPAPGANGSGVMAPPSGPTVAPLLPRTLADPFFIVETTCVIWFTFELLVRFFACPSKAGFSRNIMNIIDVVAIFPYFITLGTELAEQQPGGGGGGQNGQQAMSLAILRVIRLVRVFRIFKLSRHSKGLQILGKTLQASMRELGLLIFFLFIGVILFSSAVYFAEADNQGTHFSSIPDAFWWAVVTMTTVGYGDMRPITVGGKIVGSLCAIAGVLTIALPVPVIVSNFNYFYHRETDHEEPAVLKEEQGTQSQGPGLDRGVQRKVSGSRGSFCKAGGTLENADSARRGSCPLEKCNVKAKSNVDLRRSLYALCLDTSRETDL

In the case of `NS(=O)(=O)c1cncc(-c2cc(NCc3ccccc3)c3c(-c4ccccc4)ccn3n2)c1` [Example 1, 5-(4-(Benzylamino)-5-phenylpyrrolo[1,2-b]pyridazin-2-yl)pyridine-3-sulfonamide], the inhibition at 0.3 µM was found to be 99%.
In the case of `CCOC(=O)c1cncc(-c2cc(NCc3ccccc3)c3c(-c4cncc(C(=O)OCC)c4)ccn3n2)c1` [Example 5, Diethyl 5,5′-(4-(benzylamino)pyrrolo[1,2-b]pyridazine-2,5-diyl)dinicotinate], the inhibition at 0.3 µM came out at 34%.
Take `CC(=O)Nc1cncc(-c2cc(NCc3ccccc3)c3c(-c4ccccc4)ccn3n2)c1` [Example 3, N-(5-(4-(Benzylamino)-5-phenylpyrrolo[1,2-b]pyridazin-2-yl)pyridin-3-yl)acetamide]: the inhibition at 0.3 µM stood at 98%.
Take `NS(=O)(=O)c1cncc(-c2cc(NCc3ccccc3)c3c(-c4cccc(F)c4)ccn3n2)c1` [Example 6, 5-(4-(Benzylamino)-5-(3-fluorophenyl)pyrrolo[1,2-b]pyridazin-2-yl)-pyridine-3-sulfonamide]: the inhibition at 0.3 µM came to 95%.
Turning to `CC(=O)NS(=O)(=O)c1cncc(-c2cc(NCc3ccccc3)c3c(-c4ccccc4)ccn3n2)c1` [Example 2, N-((5-(4-(Benzylamino)-5-phenylpyrrolo[1,2-b]pyridazin-2-yl)pyridin-3-yl)sulfonyl)acetamide], the inhibition at 0.3 µM worked out at 37%.
For the molecule `CS(=O)(=O)Nc1cncc(-c2cc(NCc3ccccc3)c3c(-c4ccccc4)ccn3n2)c1` [Example 4, N-(5-(4-(Benzylamino)-5-phenylpyrrolo[1,2-b]pyridazin-2-yl)pyridin-3-yl)methanesulfonamide], the inhibition at 0.3 µM came out at 98%.

A word on the inhibition: it is the share of the control response that was lost under treatment.
